Measured values from ChEMBL document CHEMBL3507680, “University of Dundee, Gates Library screen for HepG2 cell viability”.

assay: Human HepG2 cell viability assay in 384 well format; format: toxicity, cell-based; design: dose 125 nL, time 70.5 hour; concentration not given beside the values; conditions: HepG2 cells, read-out: Inhibition

Structure (SMILES)	cytotoxicity at 70.5 h
CCOc1ccc(C#N)cc1NC(=O)N1CCCC(NC(=O)CC)C1 (centres undefined)	-7.12%
CCc1nnc(CN(C)c2nccc(CCC(F)(F)F)n2)o1	-9.32%
CC(=O)N1CCC(c2ncc3c(n2)CCN(C(=O)c2ccccc2)C3)C1 (centres undefined)	-2.46%
Cc1cccc(C)c1NC(=O)CCNC(=O)c1ccoc1	-3.89%
CC(C)c1ccc(CS(=O)(=O)CC(=O)NCc2ccccc2F)cc1	-17.3%
COCCC(=O)N1CCCC(CCc2ccc(F)c(F)c2)C1 (centres undefined)	-9.08%
Cc1sc(-c2ccco2)nc1C(=O)NCC1CCOC1 (centres undefined)	1.39%
Cc1csc(N2CCN(C(=O)c3cc(C4CC4)[nH]n3)CC2)n1	-5.91%
CC[C@@H]1N(Cc2ccccn2)CCC[C@]12CCC(=O)N2CCOC	-5.82%
CC(C(=O)Nc1ccnn1C(C)C)N1CCCN(c2nccs2)CC1 (centres undefined)	-3.68%
NC(=O)CNC1(c2ccc(Cl)cc2)CCCC1	0.922%
Cc1cc(C)n(CC2CN(c3ncnc4[nH]ccc34)CCO2)n1 (centres undefined)	1.04%
NC(=O)CCSc1ccccc1NCc1ccc(Cl)s1	-95%
Cc1nc[nH]c1CN1C[C@@H]2CC[C@H](C1)N(C(=O)CCc1cccnc1)C2	-11.7%
COC(=O)CNC(=O)c1nc(Cl)sc1C(C)C	24.5%
Cc1ccc(CC(=O)N2CCCCC2c2nc(C)cs2)cn1 (centres undefined)	-14.4%
O=S(=O)(NCC(c1ccsc1)N1CCCCCC1)c1cccs1 (centres undefined)	-3.34%
O=C(CSC1CCc2ccccc2NC1=O)NC1CC1 (centres undefined)	-2.66%
CCC1c2ccsc2CCN1C(=O)NCc1ccccn1 (centres undefined)	-6.47%
CCOCC(=O)NCCn1ccc(-c2ccccn2)n1	-4.11%
CC(C)(CNC(=O)COc1cccc(F)c1)C(N)=O	-9.07%
CCN1CCN(C)C2(CCN(C(=O)CC(F)(F)F)CC2)C1=O	0.29%
Cc1ccc(C2CCCN2Cc2nc3c(cnn3C)c(=O)[nH]2)cc1C (centres undefined)	-15.6%

Structure (SMILES)	cytotoxicity at 70.5 h
Cc1nc(CN2CCCC(NCc3ccc4c(c3)CCO4)C2)no1 (centres undefined)	14.2%
CC(=O)Nc1ccc(Oc2cc(C)nc(C3CCCNC3)c2)cc1 (centres undefined)	-3.03%
Cc1cc(S(=O)(=O)N2CC[C@@H](O)C2)c(Cl)cc1F	-6.21%
Cc1cc(C)c2c(NCCC3(O)CCCC3)ncnc2n1	-6.61%
Cc1cnc(CN2CCN(C(C)c3nc(C)no3)CC2)cn1 (centres undefined)	17.2%
Cn1nc2c(cc1=O)CN(c1ncnc3ccsc13)CC2	3.58%
CC(NC(N)=O)C(=O)NCc1cc(Br)ccc1F (centres undefined)	-7.15%
CC(C)(C)C(=O)N1CCC(n2nc(-c3ccco3)ccc2=O)CC1	-4.38%
CSCc1ccc(CNC2CCCN(c3ccc(C)nn3)C2)o1 (centres undefined)	-9.42%
Cn1cc(C(=O)Nc2cc(F)ccc2OCC2CCCO2)ccc1=O (centres undefined)	-7.6%
O=C(c1ccc2nncn2c1)N1CCSC2(CCCCC2)C1	11.5%
N#Cc1ccc(F)c(CN2CCCC2Cn2cnc3ccccc32)c1 (centres undefined)	7.39%
CN(Cc1ccc([S+](C)[O-])cc1)c1cncc(Cl)n1 (centres undefined)	-15.4%
O=C(CCCN1CCCCC1)NC(C(=O)O)c1ccc(Cl)cc1 (centres undefined)	-5.87%
CC(C)c1csc(C2CCCN(C(=O)c3ccc[nH]3)C2)n1 (centres undefined)	-4.24%
Cc1cnn(C2CCCN(C(=O)c3ccc(C(N)=O)cn3)C2)c1 (centres undefined)	3.91%
OCC1(O)CCN(Cc2ccc(C3CCCCO3)o2)CC1 (centres undefined)	-1.61%
CN1CCC(N(C)C(=O)CCc2ccc(F)c(F)c2)C1=O (centres undefined)	-6.34%
CC(C)n1nnnc1-c1ccc(NC(=O)CC(F)(F)F)cc1F	-1.35%
Cc1nc(NCC2CC2)nc2c1COCC21CCN(CC(=O)N(C)C)C1 (centres undefined)	-14.8%
Cc1noc(C)c1CC(=O)Nc1ccn(CC(N)=O)n1	-5.49%
O=C(Nc1nc2c(s1)CNCC2)NC1CCCC1	18.7%
Cc1ncnc(NCc2cc3n(n2)CCCN(S(C)(=O)=O)C3)c1C	-12.3%

Structure (SMILES)	cytotoxicity at 70.5 h
Cn1ncc2c(=O)[nH]c(CN3CCCC3c3ccsc3)nc21 (centres undefined)	-7.44%
Cn1ccnc1CN1CCC(F)(F)C2(CCN(c3cnccn3)C2)C1 (centres undefined)	19.3%
O=C1NCCCc2[nH]c(Cc3cccc(F)c3)nc21	-8.57%
CN1CC(=O)N(C2CCNCC2)Cc2c(NC3CCC3)ncnc21	-7.06%
C[C@@H]1CN(C(=O)c2cc(Cn3cnc4ccccc43)on2)C[C@H](C)O1	-5.79%
COc1ccc(Cc2noc(-c3ccc(NC(C)CO)nc3)n2)cc1 (centres undefined)	3.07%
O=C(NCC1CC1)c1cc2c(s1)CCN2c1ncccn1	-0.353%
Cc1cccnc1CC(C)N(C)C(=O)c1cccs1 (centres undefined)	-10.3%
O=C(O)[C@@H]1CN(C(=O)NCC2CCCCC2)C[C@H]1c1ccccn1	-2.76%
N#CC1(C(=O)N2CCOC(c3ccc(F)cc3)C2)CCCCC1 (centres undefined)	-9.88%
CC(NC(=O)NCCCN1CCc2ccccc2C1)c1nncn1C (centres undefined)	7.19%
N#CC1(C(=O)N2C[C@H](Nc3ccnc(N)n3)[C@@H](C3CC3)C2)CCOCC1	-3.81%
Cc1cc(N2CCCC2c2nccnc2C)ncn1 (centres undefined)	-5.86%
O=C(O)[C@@H]1CN(C(=O)c2ccc3nccnc3c2)C[C@H]1c1ccncc1	-7.07%
CC(=O)NC1CCCN(C(=O)NCc2ccc(-n3cccn3)cc2)C1 (centres undefined)	-2.4%
CNC(=O)CN1CCC12CCN(C(=O)Cc1ccccc1)C2 (centres undefined)	-17.2%
C=C(C)Cn1nc(C)c(CN2CCN(C3CCCCC3)C(=O)C2)c1C	1.66%
COc1ccc(C(=O)Nc2c(C(=O)N(C)C)nn(C)c2C)cc1	-6.56%
CCC1=NN2C(=N)/C(=C\c3cccn3-c3ccc(Cl)cc3)C(=O)N=C2S1	9.55%
Cn1nnc2cc(C(=O)NS(=O)(=O)Cc3ccc(F)cc3)ccc21	-12.6%
Cc1cnn(CC2CCCCN2C(=O)c2cnc3n[nH]c(C)c3c2)c1 (centres undefined)	-4.13%
O=C(c1ccc2cccc(F)c2n1)N1CCN(CCn2cncn2)CC1	-9.3%
COc1ccccc1-n1nc(CC(C)C)nc1Cc1nnc(N)s1	5.97%

Structure (SMILES)	cytotoxicity at 70.5 h
CC(NC(=O)NCc1cc(Br)cs1)c1ccccn1 (centres undefined)	-3.66%
c1cnc2c(c1)cc([C@@H]1CCCO1)n2CCN1CCOCC1	0.0365%
CCN(C)S(=O)(=O)NCC(O)c1cc2ccccc2s1 (centres undefined)	-0.185%
COc1cccc(N2CCC(CNC(=O)N(C)Cc3ccco3)C2)c1 (centres undefined)	-3.66%
Cc1ccc(S(=O)(=O)NC(=O)COc2ccc(CC#N)cc2)s1	2.71%
Cc1cnn(CCNCC(=O)Nc2ccc(Cl)cn2)c1	-0.0591%
CCOc1ccc(CN2CCN(C(=O)c3cc(C4CC4)[nH]n3)CC2)cc1	-2.02%
CN1C(=O)[C@H]2CC[C@@H]1CN(C(=O)Nc1ccccc1C(F)(F)F)C2	-4.06%
N#Cc1ccc(OCCN2CCNC(=O)C2c2cccs2)cc1 (centres undefined)	-6.87%
O=C(Nc1cccc(CN2CCOC2=O)c1)N1CCSCC1	-10.5%
CNc1cc(C)nc(C2COCCN2CCOc2ccc(F)cc2)n1 (centres undefined)	-3.24%
COc1cc(CN(C)C(=O)NCCC2CCCO2)ccc1SC (centres undefined)	-3.73%
COC[C@]12COC[C@H]1CN(C(=O)c1ccc(F)cc1C)C2	0.0363%
CCC(CO)N(Cc1ccc(C(=O)O)cc1)Cc1ccsc1 (centres undefined)	-5.5%
CC(=O)N1CCCN(C(=O)NCc2ccccn2)CC1	3.62%
Cc1cc(NS(=O)(=O)CC2CCCCO2)ccc1F (centres undefined)	-2.48%
Cc1nc(N(C)C)nc(N(C)CCc2ccncc2)c1C	-15.2%
Cc1cnc(N2C[C@H]3C[C@H](C(=O)N(C)C)[C@@H](C2)O3)nc1	-13.5%
O=C(c1ccc(=O)[nH]n1)N(CCO)Cc1cc(Br)ccc1F	-5.4%
COC(=O)CCN1CCC(C(=O)c2cc(F)ccc2F)CC1	-12.5%
O=C(c1csc(C2CC2)n1)N1CCCCC1Cn1cccn1 (centres undefined)	21.8%
CS(=O)(=O)NC1CCCN(C(=O)NCc2cccnc2)C1 (centres undefined)	-0.126%
COCCNC(=O)NC1(c2nc(C)no2)CCCCC1	-0.559%

Structure (SMILES)	cytotoxicity at 70.5 h
CNC(=O)[C@@H]1COC[C@H]2CN(C(=O)c3ccc(OC)cc3)C[C@H]21	-2.56%
CN(C)S(=O)(=O)N1C[C@H]2CCC[C@@]2(COCc2ccccn2)C1	13.2%
Cn1cnnc1C1CCCN(C(=O)c2cc(-c3ccccc3)on2)C1 (centres undefined)	-9.15%
c1csc(CN2Cc3[nH]nc(COCC4CC4)c3C2)c1	-8.6%
Cc1cccc(Cc2cc(C)nc(C3CCCNC3)c2)c1 (centres undefined)	2.77%
O=C(c1c(F)cccc1Br)N1CCCOCC1	3.06%
Fc1ccc(-c2nc(CNC3CCc4ncnn4C3)co2)cc1 (centres undefined)	-4.87%
CS(=O)(=O)Nc1ccn(Cc2ccc(Cl)cc2)n1	10.5%
Cn1cc(Br)c(C(=O)NCCn2cc(Br)cn2)n1	8.47%
O=C(CCN1CCC(C(=O)c2cc(F)ccc2F)CC1)NC1CC1	-0.804%
CCN(C(=O)c1ccc2nnc(C3CCN(C)C3)n2c1)C(C)C (centres undefined)	-11.3%
CCc1cc(NCCNc2ccncc2C)n2nc(C)c(C)c2n1	-1.4%
CC(=O)N1[C@H](Cn2cncn2)C[C@@H]2CN(Cc3ccccn3)CC[C@@H]21	17.3%
c1ccc(-c2nc(SCc3nnc(C4CC4)o3)n[nH]2)nc1	-4.88%
Cc1nc2c(C#N)cnn2c(C)c1CCC(=O)N(C)C(C)C(C)C (centres undefined)	-11.8%
Cc1nccn1CCNC(=O)C1(C)CC(c2ccccc2)=NO1 (centres undefined)	-3.18%
O=C(C1CCC1)N1C[C@@H](c2ccsc2)[C@@H]2CN(C3CCCC3)CC[C@@H]21	-3.74%
CCC1CN(C(=O)c2ncccc2O)CCC(=O)N1Cc1ccccc1 (centres undefined)	-0.966%
Cn1ccnc1CN1C[C@@H](CN2CCCCC2)[C@@H](CO)C1	-6.64%
Cc1cc(C)n(CC(C)NC(=O)NCc2c(C)cc(C)[nH]c2=O)n1 (centres undefined)	14.3%
Cc1ncc2c(c1C(=O)O)CCN(c1ncc(F)cn1)C2	-0.54%
CCN(Cc1cnn(C)c1)C[C@H]1CC[C@@H](Cc2ccc(C)nc2)O1	-16.5%
